A word on the IC50: it is the midpoint of a concentration-inhibition curve.

The results in this text go back to ChEMBL document CHEMBL4673291, “Synthesis and antiproliferative evaluation of novel 8-cyclopentyl-7,8-dihydropteridin-6(5H)-one derivatives as potential anticancer agents” (Bioorg Med Chem Lett, 2021).

One assay deals with HEK293. As to the kind of experiment: Cytotoxicity against HEK293 cells assessed as inhibition of cell proliferation measured after 48 hrs by MTT assay. It is filed as cell-based. The conditions noted are these: Homo sapiens, HEK293, 48 h. In general terms: Tetrazolium dyes change colour on reduction, which living cells bring about.
A further assay concerns HT-29. As to the kind of experiment: Antiproliferative activity against human HT-29 cells assessed as inhibition of cell proliferation measured after 48 hrs by MTT assay. It is filed as functional, cell-based. The conditions noted are these: HT-29, 48 h.
Assay [1] relates to HeLa. Kind of assay: Antiproliferative activity against human HeLa cells assessed as inhibition of cell proliferation measured after 48 hrs by MTT assay. It is filed as functional, cell-based.
The subject of a further assay is MDA-MB-231. As to the kind of experiment: Antiproliferative activity against human MDA-MB-231 cells assessed as inhibition of cell proliferation measured after 48 hrs by MTT assay. It is filed as functional, cell-based. Conditions: MDA-MB-231, 48 h.
In another assay the test system is HCT-116. As to the kind of experiment: Antiproliferative activity against human HCT-116 cells assessed as inhibition of cell proliferation measured after 48 hrs by MTT assay. The conditions noted are these: HCT-116, 48 h. It is filed as functional, cell-based.
The test system of assay [2] is HeLa. As to the kind of experiment: Cell cycle arrest in human HeLa cells assessed as accumulation at G2/M phase at 12 uM measured after 24 hrs by flow cytometry analysis (reference value: 15.22 %). It is filed as functional.
The test system of assay [3] is HeLa. Kind of assay: Cell cycle arrest in human HeLa cells assessed as accumulation at G2/M phase measured after 24 hrs by flow cytometry analysis. It is filed as functional, cell-based. Conditions: dose 3-12 µM. Background: A flow cytometer gives signals particle by particle.
The subject of assay [4] is HeLa. As to the kind of experiment: Cell cycle arrest in human HeLa cells assessed as accumulation at S phase at 12 uM measured after 24 hrs by flow cytometry analysis (reference value: 17.44 %). It is filed as functional.
In assay [5] the test system is HeLa. As to the kind of experiment: Cell cycle arrest in human HeLa cells assessed as accumulation at G1/G0 phase at 12 uM measured after 24 hrs by flow cytometry analysis (reference value: 67.34 %). It is filed as functional.
The subject of assay [6] is HeLa. Kind of assay: Cell cycle arrest in human HeLa cells assessed as accumulation at S phase at 6 uM measured after 24 hrs by flow cytometry analysis (reference value: 17.44 %). It is filed as functional.
Assay [7] relates to HeLa. As to the kind of experiment: Cell cycle arrest in human HeLa cells assessed as accumulation at G2/M phase at 6 uM measured after 24 hrs by flow cytometry analysis (reference value: 15.22 %). It is filed as functional.
The test system of assay [8] is HeLa. Kind of assay: Cell cycle arrest in human HeLa cells assessed as accumulation at G1/G0 phase at 6 uM measured after 24 hrs by flow cytometry analysis (reference value: 67.34 %). It is filed as functional.
In assay [9] the test system is HeLa. As to the kind of experiment: Cell cycle arrest in human HeLa cells assessed as accumulation at G2/M phase at 3 uM measured after 24 hrs by flow cytometry analysis (reference value: 15.22 %). It is filed as functional.
Assay [10] has as its system HeLa. Kind of assay: Cell cycle arrest in human HeLa cells assessed as accumulation at S phase at 3 uM measured after 24 hrs by flow cytometry analysis (reference value: 17.44 %). It is filed as functional.
Assay [11] relates to HeLa. Kind of assay: Cell cycle arrest in human HeLa cells assessed as accumulation at G1/G0 phase at 3 uM measured after 24 hrs by flow cytometry analysis (reference value: 67.34 %). It is filed as functional.

Where only a bound is given, the exact number is not on record here.

For `O=C1CN(C2CCCC2)c2nc(Nc3ccc(N4CCCCC4)cc3)ncc2N1`, the IC50 in the assay with HEK293 was 25.1 µM; in the assay on HT-29, 5.54 µM; in the assay with HeLa [1] it was over 30 µM; in the assay with MDA-MB-231, 25 µM; in the assay with HCT-116, 4.44 µM.
For `CCN1C(=O)CN(C2CCCC2)c2nc(Nc3ccc(N4CCCCC4)cc3)ncc21`, the IC50 with HEK293 is over 30 µM; with HT-29, over 30 µM; with HeLa [1], over 30 µM; in the assay with MDA-MB-231 it was over 30 µM; in the assay with HCT-116 it was 5.47 µM.
In the case of `CN1C(=O)CN(C2CCCC2)c2nc(Nc3ccc(N4CCCCC4)cn3)ncc21`, the IC50 in the assay on HEK293 is over 30 µM; with HT-29, 12.5 µM; in the assay on HeLa [1] it was over 30 µM; in the assay with MDA-MB-231, 29.3 µM; with HCT-116 it was 3.89 µM.
For `CN1CCN(c2ccc(Nc3ncc4c(n3)N(C3CCCC3)CC(=O)N4C)nc2)CC1`, the 50% inhibitory concentration (IC50) with HT-29 is 11.1 µM; with HeLa [1], 13.1 µM; in the assay on MDA-MB-231 it was 23.7 µM; in the assay with HCT-116, 9.73 µM.
Consider `CN1CCN(c2ccc(Nc3ncc4c(n3)N(C3CCCC3)CC(=O)N4)cc2)CC1`, for which the IC50 in the assay with HEK293 is over 30 µM; in the assay on HT-29 it was 5.22 µM; with HeLa [1] it was 21.3 µM; in the assay with MDA-MB-231, 26.1 µM; in the assay on HCT-116, 12.2 µM.
In the case of `CN1C(=O)CN(C2CCCC2)c2nc(Nc3ccc(N4CCOCC4)cc3)ncc21`, the IC50 in the assay with HT-29 was 20.1 µM; in the assay with HeLa [1] it was over 30 µM; in the assay on MDA-MB-231 it was over 30 µM; in the assay on HCT-116, over 30 µM.
`CC1CCN(c2ccc(Nc3ncc4c(n3)N(C3CCCC3)CC(=O)N4)nc2)CC1`: the IC50 in the assay on HT-29, in the assay on HeLa [1], in the assay with MDA-MB-231 and in the assay on HCT-116 was over 30 µM each time.
`COc1ccc(Nc2ncc3c(n2)N(C2CCCC2)CC(=O)N3)cc1`: the IC50 with MDA-MB-231 and in the assay with HCT-116 was over 30 µM throughout.
Consider `CCN1C(=O)CN(C2CCCC2)c2nc(Nc3ccc(N4CCC(C)CC4)cc3)ncc21`, for which the IC50 is over 30 µM in the assay with HEK293; 24.4 µM in the assay with HT-29; over 30 µM with HeLa [1]; over 30 µM in the assay with MDA-MB-231; 5.4 µM in the assay with HCT-116.
With `CCN1C(=O)CN(C2CCCC2)c2nc(Nc3ccc(N4CCOCC4)cn3)ncc21`, the concentration for half-maximal inhibition (IC50) is 27.6 µM with HT-29, over 30 µM with HeLa [1], over 30 µM in the assay on MDA-MB-231 and over 30 µM with HCT-116.
Regarding `O=C1CN(C2CCCC2)c2nc(Nc3ccc(N4CCNCC4)cn3)ncc2N1`, the IC50 with HT-29, in the assay on HeLa [1], in the assay with MDA-MB-231 and with HCT-116 was over 30 µM each time.
With `CC1CCN(c2ccc(Nc3ncc4c(n3)N(C3CCCC3)CC(=O)N4)cc2)CC1`, the half-inhibitory concentration (IC50) in the assay with HT-29 was 5.04 µM; in the assay on HeLa [1] it was over 30 µM; in the assay with MDA-MB-231 it was 22.7 µM; in the assay with HCT-116, 8.43 µM.
The like results for `CC(=O)c1c(C)c2cnc(Nc3ccc(N4CCNCC4)cn3)nc2n(C2CCCC2)c1=O` [PALBOCICLIB] were, in that order, 3.56 µM, 13.3 µM, 6.21 µM and 7.11 µM.
For `O=C1CN(C2CCCC2)c2nc(Nc3ccc(N4CCCCC4)cn3)ncc2N1`, in that order: 21.1 µM, over 30 µM, over 30 µM and over 30 µM.
With `CN1C(=O)CN(C2CCCC2)c2nc(Nc3ccc(N4CCCCC4)cc3)ncc21`, the IC50 came to 25.3 µM in the assay with HEK293; 9.86 µM in the assay with HT-29; 16.9 µM in the assay on HeLa [1]; 21.2 µM with MDA-MB-231; 6.1 µM with HCT-116.
In the case of `CN1CCN(c2ccc(Nc3ncc4c(n3)N(C3CCCC3)CC(=O)N4)nc2)CC1`, the IC50 in the assay on HT-29 was 26.5 µM; with HeLa [1], over 30 µM; in the assay on MDA-MB-231, over 30 µM; with HCT-116, over 30 µM.
In the case of `CCN1C(=O)CN(C2CCCC2)c2nc(Nc3ccc(N4CCOCC4)cc3)ncc21`, the IC50 in the assay on HT-29 was over 30 µM; in the assay on HeLa [1] it was over 30 µM; in the assay on MDA-MB-231 it was over 30 µM; in the assay on HCT-116, 9.05 µM.
As for `CN1CCN(c2ccc(Nc3ncc4c(n3)N(C3CCCC3)CC(=O)N4C)cc2)CC1`, the Activity is 88.97% in the assay on HeLa [2]; “Dose-dependent effect” in the assay on HeLa [3]; 0% in the assay on HeLa [4]; 11.03% in the assay on HeLa [5]; 3.9% in the assay with HeLa [6]; 48.98% in the assay with HeLa [7]. Further, the Activity in the assay with HeLa [8] came out at 47.11%; in the assay with HeLa [9], 20.97%; in the assay with HeLa [10], 14.6%; in the assay with HeLa [11], 64.43%. Also, the IC50 in the assay on HEK293 turned out to be 12.4 µM; in the assay with HT-29 it was 7.56 µM; with HeLa [1], 6.75 µM; in the assay on MDA-MB-231, 10.3 µM; with HCT-116, 3.29 µM.
In the case of `CCN1C(=O)CN(C2CCCC2)c2nc(Nc3ccc(N4CCN(C)CC4)cn3)ncc21`, the IC50 in the assay with HEK293 was over 30 µM; in the assay on HT-29 it was 7.84 µM; in the assay on HeLa [1], 29.1 µM; in the assay with MDA-MB-231 it was 24.1 µM; in the assay with HCT-116 it was 16.4 µM.
Turning to `CCN1C(=O)CN(C2CCCC2)c2nc(Nc3ccc(N4CCN(C)CC4)cc3)ncc21`, the half-inhibitory concentration (IC50) in the assay on HEK293 is over 30 µM; in the assay on HT-29, 10.3 µM; with HeLa [1], 28.3 µM; in the assay with MDA-MB-231, 26.2 µM; with HCT-116, 7.96 µM.
Regarding `CC1CCN(c2ccc(Nc3ncc4c(n3)N(C3CCCC3)CC(=O)N4C)nc2)CC1`, the IC50 in the assay with HT-29 was 11.3 µM; with HeLa [1], over 30 µM; with MDA-MB-231 it was over 30 µM; in the assay with HCT-116, over 30 µM.
As to `O=C1CN(C2CCCC2)c2nc(Nc3ccc(N4CCOCC4)cn3)ncc2N1`, the IC50 was 22 µM in the assay with HT-29, over 30 µM with HeLa [1], over 30 µM with MDA-MB-231 and 25.3 µM in the assay on HCT-116.
In the case of `CC1CCN(c2ccc(Nc3ncc4c(n3)N(C3CCCC3)CC(=O)N4C)cc2)CC1`, the IC50 in the assay with HT-29 was over 30 µM; with HeLa [1], over 30 µM; in the assay with MDA-MB-231, over 30 µM; in the assay on HCT-116 it was 25.3 µM.
`COc1ccc(Nc2ncc3c(n2)N(C2CCCC2)CC(=O)N3C)cc1`: the IC50 in the assay on MDA-MB-231 is over 30 µM; in the assay with HCT-116, 12.3 µM.
`CCN1C(=O)CN(C2CCCC2)c2nc(Nc3ccc(N4CCC(C)CC4)cn3)ncc21`: the half-maximal inhibitory concentration (IC50) with HT-29 was over 30 µM; with HeLa [1] it was over 30 µM; in the assay on MDA-MB-231 it was over 30 µM; with HCT-116, 19.1 µM.
In the case of `O=C1CN(C2CCCC2)c2nc(Nc3ccc(N4CCOCC4)cc3)ncc2N1`, the IC50 in the assay with HEK293 was over 30 µM; in the assay on HT-29, 22.8 µM; in the assay with HeLa [1] it was 26 µM; in the assay with MDA-MB-231, 25.1 µM; in the assay on HCT-116, 9.5 µM.
For `O=C1CN(Cc2ccccc2)c2nc(NCCc3ccccc3)ncc2N1`, the IC50 was over 30 µM in the assay on HEK293, over 30 µM in the assay with HT-29, 20.7 µM in the assay on HeLa [1] and 25.4 µM in the assay on HCT-116.
As for `CCN1C(=O)CN(C2CCCC2)c2nc(Nc3ccc(N4CCCCC4)cn3)ncc21`, the IC50 with HEK293 is over 30 µM; in the assay with HT-29 it was 22 µM; in the assay with HeLa [1] it was 17.6 µM; in the assay with MDA-MB-231, 28.2 µM; in the assay on HCT-116, 14.5 µM.
With `CN1C(=O)CN(C2CCCC2)c2nc(Nc3ccc(N4CCOCC4)cn3)ncc21`, the 50% inhibitory concentration (IC50) with HT-29 was 28.4 µM; in the assay with HeLa [1], over 30 µM; with MDA-MB-231, over 30 µM; in the assay on HCT-116, 23.6 µM.
Consider `CCN1C(=O)CN(C2CCCC2)c2nc(Nc3ccc(OC)cc3)ncc21`, for which the IC50 is over 30 µM in the assay on MDA-MB-231 and 11 µM in the assay with HCT-116.
